From patent US4892876A, “Method for inhibiting HIV and an pharmaceutical composition therefor” (Nippon Kayaku Kabushiki Kaisha, priority 1987, dated 1990) come the findings set out here.

The subject of data set [1] is HIV (Human Immunodeficiency Virus). Description: Development of virus antigen in HIV-infected MT-4 cells (fluorescent antibody technique). Format: cell-based.
Data set [2] has the same test system. Description: Inhibition of HIV cytopathic effect in MT-4 cells (microscopic observation). Format: cell-based. The procedure: About 50,000 cells/ml of MT-4 cell was introduced into a tray having 24 holes. Further, 100 ul of a solution containing a predetermined quantity of oxcetanocin was added, and then it was cultured in a 5% (v/v) carbon dioxide gas incubator at 37° C. for 2 hours. Subsequently, 10^3 to 1.0^4 infective units of HIV were added and cultured for 5 days. Then, the inhibition of cytopathic effect was observed microscopically.

Another data set has as its system MT-4 cell. Description: Cytotoxic effect on MT-4 cell without virus. The data set is classed as cell-based. To be noted: at concentration of 30 ug/ml. The procedure:
About 50,000 cells/ml of MT-4 cell was introduced into a tray having 24 holes. Further, 100 ul of a solution containing a predetermined quantity of oxcetanocin was added, and then it was cultured in a 5% (v/v) carbon dioxide gas incubator at 37° C. for 2 hours. Subsequently, 10^3 to 1.0^4 infective units of HIV were added and cultured for 5 days. Then, the inhibition of cytopathic effect was observed microscopically. Cytotoxic effect of oxcetanocin on MT-4 cell was examined without adding virus according to the above technique.

In the next data set the test system is mice. Description: Toxicity after 1 intraperitoneal administration in mice. Format: in vivo. The conditions noted are these: 1 administration of 800 mg/kg.
The nature of data set [3]: Toxicity, general statement including repetitive administration. Format: in vivo.

Turning to `Nc1ncnc2c1ncn2C1OC(CO)C1CO` (centres unmarked) [Oxcetanocin, oxcetanocin], the “Development of virus antigens (in words)” value in data set [1] is “very suppressive to development of virus antigens”. For the same molecule, in data set [2], the “Inhibition of cytopathic effect (in words)” value is recorded as “predominantly inhibitory to cytopathic effect”. Further, the “Cytotoxicity (in words)” value in the data set with MT-4 cell was “not cytotoxic”. Also, the Toxic sign entry with mice is on record as “Any toxic sign has not been observed”. The Toxicity result in data set [3] is recorded as “slightly toxic”.
